In patent US11957684B2, “Treatment of heavy menstrual bleeding associated with uterine fibroids” (Sumitomo Pharma Switzerland GmbH, priority 2016, dated 2024):
Where “and” joins values, the source holds several entries; their conditions need not be identical. Equal entries are not always repeated. Where two headings read alike, the source gives them in different places.

System: endometriosis-associated pain
Format: in vivo, human
Experimental: Subjects assessed and recorded their own quality of life (QOL) using the EHP-30 once a month during the study visit. As used in the examples, the VAS score was evaluated using a 100 mm scale. For pain intensity, the scale was anchored by “no pain” (score of 0) and “pain as bad as you can imagine” (score of 100). […] The above items were evaluated using a patient diary that was distributed by the sponsor. Subjects filled out the patient diary every day during the treatment period or until early termination. If taking prohibited analgesics, subjects recorded this fact in the patient diary along with the accompanying pain symptoms before use of analgesics. As used in the examples, pain during menstruation and pelvic pain unrelated to menstruation were evaluated using scores on the M-B&B and B&B. The M-B&B scores were recorded by subjects on the patient diary supplied by the sponsor. Subjects filled out the patient diary every day during the treatment period or until early termination. If taking prohibited analgesics, subjects recorded this fact in the patient diary along with the accompanying pain symptoms before use of analgesics. The investigator or subinvestigator assessed each patient's pain through interviews and filled out a B&B once a month. The items that were assessed are shown below. The M-B&B score included: dysmenorrhea (severe, moderate, mild, no pain, or no menstruation); pelvic pain (severe, moderate, mild, or no pain); deep dyspareunia (severe, moderate, mild, no pain, or no intercourse). The B&B score included: dysmenorrhea (severe, moderate, mild, none, or not applicable); dyspareunia (severe, moderate, mild, none, or not applicable); pelvic pain (severe, moderate, mild, or none); pelvic tenderness (severe, moderate, mild, or none); and induration (severe, moderate, mild, or none). As used in the examples, the EHP-30 score was obtained by subjects assessing and recording their own QOL using the EHP-30 questionnaire.

[1] = 40 mg, end of 84 consecutive days

CONC(=O)Nc1ccc(-c2sc3c(c2CN(C)C)c(=O)n(-c2ccc(OC)nn2)c(=O)n3Cc2c(F)cccc2F)cc1 [Compound 1, N-(4-(1-(2,6-difluorobenzyl)-5-((dimethylamino)methyl)-3-(6-methoxy-3-pyridazinyl)-2,4-dioxo-1,2,3,4-tetrahydrothieno[2,3-d]pyrimidin-6-yl)phenyl)-N′-methoxyurea]
change from baseline in maximum VAS, pelvic pain (20 mg, end of treatment): −33.3±30.14 mm | change from baseline in mean M-B&B score, deep dyspareunia (20 mg, end of treatment): −0.210±0.4936 | change from baseline in mean M-B&B score, dysmenorrhea (20 mg, end of treatment): −0.795±0.6490 | change from baseline in mean VAS, dysmenorrhea (20 mg, end of treatment): −19.825±20.4332 mm | change from baseline in mean VAS, dyspareunia (20 mg, end of treatment): −3.553±11.5544 mm | change from baseline in mean VAS, pelvic pain (20 mg, end of treatment): −9.032 mm and −9.032±11.8432 mm | change from baseline in proportion of days with usage of pain killer (20 mg, end of treatment): −7.36±14.585% | change in proportion of days without pain (M-B&B), deep dyspareunia (20 mg, end of treatment): 18.04±47.892% | change in proportion of days without pain (M-B&B), dysmenorrhea (20 mg, end of treatment): 50.92±41.641% | change in proportion of days without pain (M-B&B), pelvic pain (20 mg, end of treatment): 17.75±30.339% | change in proportion of days without pain (VAS), dysmenorrhea (20 mg, end of treatment): 50.91±42.602% | change in proportion of days without pain (VAS), dyspareunia (20 mg, end of treatment): 15.14±47.793% | change in proportion of days without pain (VAS), pelvic pain (20 mg, end of treatment): 21.50±28.859% | mean VAS score, dysmenorrhea (20 mg, end of treatment): 7.878±14.2406 mm | mean VAS score, dyspareunia (20 mg, end of treatment): 6.363±13.1847 mm | mean VAS score, pelvic pain (20 mg, end of treatment): 6.557±11.2902 mm | subjects who achieved amenorrhea (20 mg, end of treatment): 54.0% | subjects without pain in M-B&B score, dysmenorrhea (20 mg, end of treatment): 61.0% | subjects without pain in M-B&B score, dyspareunia (20 mg, end of treatment): 52.5% | subjects without pain in M-B&B score, pelvic pain (20 mg, end of treatment): 34.0% | subjects without pain in VAS score, dysmenorrhea (20 mg, end of treatment): 59.0% | subjects without pain in VAS score, dyspareunia (20 mg, end of treatment): 47.5% | subjects without pain in VAS score, pelvic pain (20 mg, end of treatment): 20% | change from baseline in pelvic pain, dysmenorrhea, and dyspareunia in mean VAS (40 mg, 84 consecutive days): −10.418±11.0171 mm | change from baseline in mean VAS, dysmenorrhea (40 mg, Day 1-28): −10.979±14.8545 mm | change from baseline in mean VAS, dyspareunia (40 mg, Day 1-28): 2.995±9.7916 mm | change from baseline in mean VAS, pelvic pain (40 mg, Day 1-28): −3.761±7.8831 mm | mean VAS score, dysmenorrhea (40 mg, Day 1-28): 19.452±19.1065 mm | mean VAS score, dyspareunia (40 mg, Day 1-28): 9.522±13.6408 mm | mean VAS score, pelvic pain (40 mg, Day 1-28): 11.498±13.2341 mm | change from baseline in mean VAS, dysmenorrhea (40 mg, Day 57-84): −30.094±17.2623 mm | change from baseline in mean VAS, dyspareunia (40 mg, Day 57-84): −1.860±10.3161 mm | change from baseline in mean VAS, pelvic pain (40 mg, Day 57-84): −10.537±11.0516 mm | mean VAS score, dysmenorrhea (40 mg, Day 57-84): 0.569±2.5367 mm | mean VAS score, dyspareunia (40 mg, Day 57-84): 4.126±7.9652 mm | mean VAS score, pelvic pain (40 mg, Day 57-84): 4.785±8.9162 mm | change from baseline in mean VAS, dysmenorrhea (40 mg, Day 141-168): −31.210±17.7668 mm | change from baseline in mean VAS, dyspareunia (40 mg, Day 141-168): −0.830±13.6774 mm | mean VAS score, dysmenorrhea (40 mg, Day 141-168): 0.430±2.3141 mm | mean VAS score, dyspareunia (40 mg, Day 141-168): 3.531±9.6053 mm | mean VAS score, pelvic pain (40 mg, Day 141-168): 2.979±6.1704 mm | change from baseline in EHP-30, Self-image (40 mg, Week 24): −9.68±17.744 | change from baseline in EHP-30, control & powerlessness (40 mg, Week 24): −20.88±21.676 | change from baseline in EHP-30, emotional well-being (40 mg, Week 24): −13.26±16.316 | change from baseline in EHP-30, pain (40 mg, Week 24): −25.94±19.902 | change from baseline in EHP-30, social support (40 mg, Week 24): −10.28±17.109 | change from baseline in mean B&B score, dysmenorrhea (40 mg, Week 24): −2.0±0.61 | change from baseline in mean B&B score, dyspareunia (40 mg, Week 24): −0.1±0.43 | change from baseline in mean B&B score, pelvic pain (40 mg, Week 24): −1.0±0.86 | change from baseline in mean B&B score, pelvic tenderness (40 mg, Week 24): −1.0±0.92 | subjects without pain in B&B score, dysmenorrhea (40 mg, Week 24): 94.3% | subjects without pain in B&B score, pelvic pain (40 mg, Week 24): 58.6% | change from baseline in proportion of days without dysmenorrhea (M-B&B) (40 mg, end of 28 consecutive days): 73.98±29.567% | change from baseline in mean EHP-30 score [1]: −25.94±19.902 | change from baseline in mean M-B&B score, deep dyspareunia [1]: −0.097±0.4325 | change from baseline in mean M-B&B score, dysmenorrhea [1]: −1.144±0.5014 | change from baseline in mean M-B&B score, pelvic pain [1]: −0.400±0.4491 | change from baseline in proportion of days without deep dyspareunia (M-B&B) [1]: 8.15±43.20% | change from baseline in proportion of days without dysmenorrhea (VAS) [1]: 78.45±29.838% | change from baseline in proportion of days without pelvic pain (M-B&B) [1]: 31.00±36.746% | change from baseline in proportion of days without pelvic pain (VAS) [1]: 36.59±34.849% | subjects without dysmenorrhea (B&B) [1]: 94.3% | subjects without dyspareunia (M-B&B) [1]: 51.3% | change from baseline in maximum M-B&B score, dysmenorrhea (40 mg, end of treatment): −2.0±0.76 | change from baseline in maximum M-B&B score, dyspareunia (40 mg, end of treatment): −0.1±0.54 | change from baseline in maximum M-B&B score, pelvic pain (40 mg, end of treatment): −1.0±0.89 | change from baseline in maximum VAS, dysmenorrhea (40 mg, end of treatment): −57.1±25.00 mm | change from baseline in maximum VAS, dyspareunia (40 mg, end of treatment): −2.5±17.17 mm | change from baseline in maximum VAS, pelvic pain (40 mg, end of treatment): −49.7±26.47 mm | change from baseline in mean M-B&B score, deep dyspareunia (40 mg, end of treatment): −0.097±0.4325 | change from baseline in mean M-B&B score, dysmenorrhea (40 mg, end of treatment): −1.144±0.5014 | change from baseline in mean M-B&B score, pelvic pain (40 mg, end of treatment): −0.400±0.4491 | change from baseline in mean VAS, dysmenorrhea (40 mg, end of treatment): −29.513±17.5379 mm | change from baseline in mean VAS, dyspareunia (40 mg, end of treatment): −0.925±12.0373 mm | change from baseline in mean VAS, pelvic pain (40 mg, end of treatment): −11.924 mm and −11.924±11.2609 mm | change from baseline in mean score of amount of bleeding (0 to 5) (40 mg, end of treatment): −2.207±0.8149 | change from baseline in proportion of days with usage of pain killer (40 mg, end of treatment): −9.95±14.214% | change in proportion of days without pain (M-B&B), deep dyspareunia (40 mg, end of treatment): 8.15±43.207% | change in proportion of days without pain (M-B&B), dysmenorrhea (40 mg, end of treatment): 73.98±29.567% | change in proportion of days without pain (M-B&B), pelvic pain (40 mg, end of treatment): 31.00±36.746% | change in proportion of days without pain (VAS), dysmenorrhea (40 mg, end of treatment): 78.45±29.838% | change in proportion of days without pain (VAS), dyspareunia (40 mg, end of treatment): 4.50±40.796% | change in proportion of days without pain (VAS), pelvic pain (40 mg, end of treatment): 36.59±34.849% | mean VAS score, dysmenorrhea (40 mg, end of treatment): 0.918±4.3438 mm | mean VAS score, dyspareunia (40 mg, end of treatment): 4.842±9.1145 mm | mean VAS score, pelvic pain (40 mg, end of treatment): 3.335±6.4059 mm | subjects who achieved amenorrhea (40 mg, end of treatment): 91.3% | subjects without pain in M-B&B score, dysmenorrhea (40 mg, end of treatment): 93.2% | subjects without pain in M-B&B score, dyspareunia (40 mg, end of treatment): 51.3% | subjects without pain in M-B&B score, pelvic pain (40 mg, end of treatment): 52.4% | subjects without pain in VAS score, dysmenorrhea (40 mg, end of treatment): 93.2% | subjects without pain in VAS score, dyspareunia (40 mg, end of treatment): 48.7% | subjects without pain in VAS score, pelvic pain (40 mg, end of treatment): 49.5% and 50%
